Results taken from patent publication US9821004B2, “Inhibition of a lncRNA for treatment of melanoma” (VIB VZW, priority 2013, dated 2017).

Key:
[1] = system: BRAFV600E human melanoma cell line; test: Apoptosis (Annexin-5-positive cells by FACS) after gapmer transfection plus BRAFV600E-inhibitor; format: cell-based; details: gapmer 3 transfection; 24 hours after exposure to the BRAFV600E-inhibitor, 48 hours after transfection, FIG. 16
Experimental: Apoptosis was measured by quantification of Annexin-5-positive cells by FACS 24 hours after exposure to the BRAFV600E-inhibitor (and 48 hours after transfection). Representative pictures of the cells are shown.
Importantly, knock-down of LINC01212 sensitizes BRAFV600E-melanoma cells to a BRAF-inhibitor currently used in the clinic, […] (FIG. 16).

[2] = system: BRAFV600E-positive melanomas; details: patients with BRAFV600E-positive melanomas; cited from earlier work

For `CCCS(=O)(=O)Nc1ccc(F)c(C(=O)c2c[nH]c3ncc(-c4ccc(Cl)cc4)cc23)c1F` [PLX4032], the “sensitization of BRAFV600E-melanoma cells to BRAF-inhibitor by LINC01212 knock-down (apoptosis)” value [1] is listed as “sensitizes” and the anti-tumor response rate [2] is listed as 80%.
